Each structure is given as a SMILES string.

From patent publication US11020358B2, “Method for the anti-senescence of and/or rejuvenating stem cells” (GWO XI STEM CELL APPLIED TECHNOLOGY CO., LTD., priority 2014, dated 2021) come the findings set out here.

In one test the test system is ADSCs. Kind of test: Analysis of proliferation rate (Ki67 staining). It is filed as cell-based, human. The method, then:
Four portions of equal volume of the above culture medium containing the sub-cultured ADSCs were separately handled by adding thereinto H2O2 (purchased from Sigma-Aldrich) at a final concentration of 100 μM and reacting for 2 hours to induce senescence of the ADSCs, replacing the culture medium with a fresh culture medium, adding thereinto TC (trans-cinnamaldehyde, purchased from Sigma-Aldrich) at a final concentration of 0, 2, 4 or 6 μM and reacting for 6 hours, so as to obtain “H2O2 group (i.e., treated with H2O2 for 2 hours, but not treated with TC),” “H2O2+TC2 group (i.e., treated with H2O2 for 2 hours and then treated with 2 μM of TC for 6 hours),” “H2O2+TC4 group (i.e., treated with H2O2 for 2 hours and then treated with 4 μM of TC for 6 hours),” and “H2O2+TC6 group (i.e., treated with H2O2 for 2 hours and then treated with 6 μM of TC for 6 hours)” ADSCs. Samples of the “untreated group,” “H2O2 group,” and “H2O2+TC6 group” ADSCs obtained from Example 1 (1) were washed with phosphate buffered saline (PBS) twice, fixed with 3.7% formaldehyde, and blocked with 10% FBS (diluted in PBS). Then, the cells of each sample were washed with PBS once, and reacted with a Ki67 antibody (purchased from Novus biological) at 4° C. overnight. […]

Another test relates to telomerase. Kind of test: Telomerase activity assay (TRAP) in ADSCs. It is filed as cell-based, human. The procedure:
It has been know that the activity of telomerase plays a key role in controlling cell senescence. The activity of telomerase in each of the “untreated group,” “H2O2 group” and “TC6 group” ADSCs from Example 1 (1) was analyzed by Telomeric Repeat Amplification Protocol (TRAP) as follows. The 3′-end primer of telomere (i.e., Telo TAGGG) was extended by PCR under the catalysis of telomerase to amplify the TTAGGG repeat sequence. Then, signals of the product were detected by enzyme-linked immunosorbent assay (ELISA). The results are shown in FIG. 7, wherein the activity of telomerase in HEK293 cells (without any treatment) was served as a positive control group.

The next test deals with hBMMSCs. Kind of test: SA-β-gal activity assay in hBMMSCs. It is filed as cell-based, human. The procedure: Three portions of equal volume of the above culture medium containing the sub-cultured hBMMSCs were provided. The first and second portions were handled by adding thereinto H2O2 at a final concentration of 100 μM, reacting for 2 hours to induce senescence of the hBMMSCs, replacing the culture medium with a fresh culture medium, adding thereinto TC at final concentrations of 0 and 6 μM respectively, and reacting for 6 hours to obtain “H2O2 group (i.e., treated with H2O2 for 2 hours, but not treated with TC)” and “H2O2+TC6 group (i.e., treated with H2O2 for 2 hours and then treated with 6 μM of TC for 6 hours) hBMMSCs. The third portion without any treatment was referred to as “untreated group” hBMMSCs.
The ADSCs in each sample of the group obtained from Example 1 (1) were washed with PBS twice, fixed with 3% formaldehyde and washed with PBS once. […]
The staining solution was removed. […] The cells were observed and photographed under a microscope with 10-fold magnification, and the percentage of SA-β-gal activity-positive cells was calculated. […]

The test system of the next test is SIRT1 gene. Kind of test: Quantitative RT-PCR of SIRT1 gene in WJSCs. It is filed as cell-based. The method, then: Three portions of equal volume of the above culture medium containing the sub-cultured WJSCs were provided. The first and second portions were handled by adding thereinto H2O2 at a final concentration of 100 μM, reacting for 2 hours to induce senescence of the WJSCs, replacing the culture medium with a fresh culture medium, adding thereinto TC at final concentrations of 0 and 6 μM, respectively, and reacting for 6 hours to obtain “H2O2 group (i.e., treated with H2O2 for 2 hours, but not treated with TC)” and “H2O2+TC6 group (i.e., treated with H2O2 for 2 hours and then treated with 6 μM of TC for 6 hours) WJSCs. The third portion without any treatment was referred to as “untreated group” WJSCs. […]
Each of the cDNA of ADSCs of different groups from Experiment (3-1) was handled as follows. […] The mixture was then placed in a real-time quantitative PCR machine (ABI prism 7700 sequence detection system) to perform a reaction for quantifying the gene expression levels. […]
The steps as shown in Experiment (3-2) were repeated, but the cDNA was substituted with the cDNA of the BMMSCs or WJSCs from Experiment (3-1) to conduct quantitative RT-PCR.

On to `O=C/C=C/c1ccccc1` [TC, trans-cinnamaldehyde], for which the “number of the Ki67-positive cells” value in the test with ADSCs (H2O2+TC6 group ADSCs (6 μM TC 6 h after H2O2)) was “increased to be similar to that in “untreated group””. In addition, the activity of telomerase result in the test with telomerase (ADSCs, 6 μM TC (“TC6 group”), compared to H2O2 group) was “significantly increased”. Further, in the test on hBMMSCs (H2O2+TC6 group (6 μM TC 6 h after H2O2) compared to H2O2 group), the “number of the SA-β-gal activity-positive hBMMSCs” value was “significantly reduced”. Besides, the “expression level of SIRT1 gene in WJSCs” value with SIRT1 gene (H2O2+TC6 group compared to H2O2 group) is “significantly increased”.
Consider `OO` [H2O2, reference compound], for which the “number of the Ki67-positive cells” value with ADSCs (H2O2 group ADSCs (100 μM 2 h), compared to untreated group) is “significantly reduced”. In addition, the activity of telomerase entry in the test with telomerase (H2O2 group ADSCs compared to untreated group) is recorded as “significantly decreased”. In the test on hBMMSCs (H2O2 group (100 μM 2 h) compared to untreated group), the “number of the SA-β-gal activity-positive hBMMSCs” value is given as “significantly increased”. In addition, in the test with SIRT1 gene (H2O2 group compared to untreated group), the “expression level of SIRT1 gene in WJSCs” value was “significantly reduced”.
